According to the NIST ThermoML archive (doi:10.1021/acs.jced.5b00348):
“And” between values parts separate entries of the source, which are not always exact repeats. Equal entries are not always repeated. ± gives the expanded uncertainty stated by the source.

Details: for vapor or sublimation pressure: Closed cell (Static) method

FC(F)(F)/C=C/Cl [(E)-1-chloro-3,3,3-trifluoroprop-1-ene]
Details | mass density [kg/m3] | speed of sound
215.01 K, 1815.3 kPa, Liquid | 1449.31 ± 0.36 | –
220 K, 1921.7 kPa, Liquid | 1439.12 ± 0.33 | –
220 K, 8321.7 kPa, Liquid | 1447.77 ± 0.33 | –
225 K, 8257.8 kPa, Liquid | 1437.64 ± 0.33 | –
230 K, 14558 kPa, Liquid | 1436.27 ± 0.35 | –
235 K, 1363.6 kPa, Liquid | 1406.94 ± 0.32 | –
235 K, 5155.5 kPa, Liquid | 1412.84 ± 0.32 | –
235 K, 10102 kPa, Liquid | 1420.19 ± 0.32 | –
235 K, 15131 kPa, Liquid | 1427.32 ± 0.32 | –
235 K, 20809 kPa, Liquid | 1434.98 ± 0.35 | –
240 K, 7088 kPa, Liquid | 1405.56 ± 0.32 | –
245 K, 12803 kPa, Liquid | 1404.29 ± 0.32 | –
250 K, 18468 kPa, Liquid | 1403.09 ± 0.32 | –
255 K, 1176.9 kPa, Liquid | 1363.85 ± 0.31 | –
255 K, 5115 kPa, Liquid | 1371.16 ± 0.31 | –
255 K, 10377 kPa, Liquid | 1380.36 ± 0.31 | –
255 K, 15392 kPa, Liquid | 1388.62 ± 0.32 | –
255 K, 21124 kPa, Liquid | 1397.53 ± 0.34 | –
255 K, 24078 kPa, Liquid | 1401.93 ± 0.35 | –
260 K, 6173.2 kPa, Liquid | 1362.59 ± 0.31 | –
265 K, 11152 kPa, Liquid | 1361.41 ± 0.31 | –
270 K, 16100 kPa, Liquid | 1360.29 ± 0.31 | –
275 K, 1267.3 kPa, Liquid | 1319.85 ± 0.3 | –
275 K, 4966.8 kPa, Liquid | 1328.13 ± 0.3 | –
275 K, 10048 kPa, Liquid | 1338.72 ± 0.3 | –
275 K, 15054 kPa, Liquid | 1348.44 ± 0.31 | –
275 K, 21020 kPa, Liquid | 1359.23 ± 0.31 | –
280 K, 5624.6 kPa, Liquid | 1318.7 ± 0.3 | –
285 K, 9970.2 kPa, Liquid | 1317.63 ± 0.3 | –
289.99 K, 80.81 kPa, Gas | – | 137.76 ± 0.024 m/s
290.01 K, 14296 kPa, Liquid | 1316.62 ± 0.3 | –
290.06 K, 80.8 kPa, Gas | – | 137.77 ± 0.024 m/s
295 K, 1205.6 kPa, Liquid | 1273.49 ± 0.29 | –
295 K, 5284 kPa, Liquid | 1284.64 ± 0.29 | –
295 K, 10000 kPa, Liquid | 1296.45 ± 0.29 | –
295 K, 14695 kPa, Liquid | 1307.26 ± 0.3 | –
295 K, 18582 kPa, Liquid | 1315.63 ± 0.3 | –
299.99 K, 4671.2 kPa, Liquid | 1271.6 ± 0.29 | –
300 K, 4941.7 kPa, Liquid | 1272.36 ± 0.29 | –
300.01 K, 79.96 kPa, Gas | – | 140.51 ± 0.024 m/s
300.01 K, 80 kPa, Gas | – | 140.52 ± 0.024 m/s
300.01 K, 113.38 kPa, Gas | – | 138.9 ± 0.025 m/s
300.02 K, 113.38 kPa, Gas | – | 138.9 ± 0.025 m/s
305 K, 8702.1 kPa, Liquid | 1271.4 ± 0.29 | –
309.99 K, 12156 kPa, Liquid | 1269.71 ± 0.29 | –
309.99 K, 12442 kPa, Liquid | 1270.47 ± 0.29 | –
314.99 K, 8185.4 kPa, Liquid | 1247.49 ± 0.28 | –
314.99 K, 16168 kPa, Liquid | 1269.57 ± 0.29 | –
315 K, 1207.6 kPa, Liquid | 1224.52 ± 0.28 | –
315 K, 4179.3 kPa, Liquid | 1234.82 ± 0.28 | –
315 K, 11929 kPa, Liquid | 1258.3 ± 0.29 | –
319.59 K, 129.53 kPa, Gas | – | 143.66 ± 0.024 m/s
319.59 K, 183.14 kPa, Gas | – | 141.46 ± 0.029 m/s
319.6 K, 129.45 kPa, Gas | – | 143.67 ± 0.027 m/s
319.6 K, 150.69 kPa, Gas | – | 142.81 ± 0.027 m/s
319.6 K, 150.7 kPa, Gas | – | 142.81 ± 0.027 m/s
319.6 K, 183.09 kPa, Gas | – | 141.46 ± 0.03 m/s
319.6 K, 183.12 kPa, Gas | – | 141.46 ± 0.03 m/s
319.61 K, 68.35 kPa, Gas | – | 146.03 ± 0.024 m/s
319.61 K, 129.45 kPa, Gas | – | 143.67 ± 0.024 m/s
319.61 K, 215.09 kPa, Gas | – | 140.12 ± 0.025 m/s
319.61 K, 215.18 kPa, Gas | – | 140.11 ± 0.028 m/s
319.61 K, 215.23 kPa, Gas | – | 140.11 ± 0.028 m/s
319.62 K, 68.35 kPa, Gas | – | 146.03 ± 0.024 m/s
319.99 K, 4450.8 kPa, Liquid | 1223.61 ± 0.28 | –
319.99 K, 19560 kPa, Liquid | 1267.92 ± 0.29 | –
325 K, 7686.4 kPa, Liquid | 1222.74 ± 0.28 | –
330 K, 10903 kPa, Liquid | 1221.9 ± 0.28 | –
335.01 K, 948 kPa, Liquid | 1170.3 ± 0.27 | –
335.01 K, 4081.7 kPa, Liquid | 1184.44 ± 0.27 | –
335.01 K, 7985.8 kPa, Liquid | 1199.99 ± 0.27 | –
335.01 K, 11894 kPa, Liquid | 1213.83 ± 0.28 | –
335.01 K, 14112 kPa, Liquid | 1221.09 ± 0.3 | –
339.43 K, 353.83 kPa, Gas | – | 140.91 ± 0.027 m/s
339.44 K, 145.11 kPa, Gas | – | 148.28 ± 0.026 m/s
339.44 K, 267.82 kPa, Gas | – | 144.07 ± 0.027 m/s
339.44 K, 267.83 kPa, Gas | – | 144.07 ± 0.027 m/s
339.44 K, 267.89 kPa, Gas | – | 144.07 ± 0.027 m/s
339.44 K, 353.63 kPa, Gas | – | 140.92 ± 0.024 m/s
339.44 K, 353.76 kPa, Gas | – | 140.91 ± 0.027 m/s
339.45 K, 144.98 kPa, Gas | – | 148.29 ± 0.026 m/s
339.45 K, 145.24 kPa, Gas | – | 148.28 ± 0.026 m/s
339.45 K, 267.8 kPa, Gas | – | 144.08 ± 0.027 m/s
339.45 K, 267.82 kPa, Gas | – | 144.08 ± 0.027 m/s
339.47 K, 199.9 kPa, Gas | – | 146.45 ± 0.027 m/s
339.47 K, 268.41 kPa, Gas | – | 144.06 ± 0.028 m/s
339.47 K, 321.82 kPa, Gas | – | 142.12 ± 0.027 m/s
339.47 K, 447.53 kPa, Gas | – | 137.13 ± 0.028 m/s
339.48 K, 199.88 kPa, Gas | – | 146.45 ± 0.026 m/s
339.48 K, 268.39 kPa, Gas | – | 144.06 ± 0.028 m/s
339.48 K, 268.43 kPa, Gas | – | 144.06 ± 0.027 m/s
339.48 K, 322.03 kPa, Gas | – | 142.12 ± 0.027 m/s
339.48 K, 374.34 kPa, Gas | – | 140.12 ± 0.028 m/s
339.48 K, 447.52 kPa, Gas | – | 137.13 ± 0.028 m/s
339.48 K, 447.57 kPa, Gas | – | 137.13 ± 0.025 m/s
339.49 K, 85.51 kPa, Gas | – | 150.21 ± 0.026 m/s
339.49 K, 85.52 kPa, Gas | – | 150.22 ± 0.029 m/s
339.49 K, 322.01 kPa, Gas | – | 142.12 ± 0.027 m/s
340 K, 3674.5 kPa, Liquid | 1169.48 ± 0.27 | –
345.01 K, 6402.5 kPa, Liquid | 1168.7 ± 0.29 | –
349.98 K, 366.9 kPa, Gas | 17.985 ± 0.017 | –
350 K, 9119.8 kPa, Liquid | 1167.95 ± 0.29 | –
355.01 K, 990.8 kPa, Liquid | 1111.28 ± 0.28 | –
355.01 K, 2028.5 kPa, Liquid | 1117.99 ± 0.28 | –
355.01 K, 3980.1 kPa, Liquid | 1129.59 ± 0.28 | –
355.01 K, 6026.4 kPa, Liquid | 1140.59 ± 0.28 | –
355.01 K, 8135 kPa, Liquid | 1150.94 ± 0.28 | –
355.01 K, 9972.9 kPa, Liquid | 1159.29 ± 0.29 | –
355.01 K, 11833 kPa, Liquid | 1167.22 ± 0.29 | –
359.44 K, 307.1 kPa, Gas | – | 148.62 ± 0.027 m/s
359.44 K, 400.17 kPa, Gas | – | 145.8 ± 0.027 m/s
359.44 K, 400.23 kPa, Gas | – | 145.8 ± 0.027 m/s
359.44 K, 500.35 kPa, Gas | – | 142.58 ± 0.028 m/s
359.44 K, 596.92 kPa, Gas | – | 139.26 ± 0.026 m/s
359.45 K, 307.02 kPa, Gas | – | 148.63 ± 0.027 m/s
359.45 K, 307.4 kPa, Gas | – | 148.62 ± 0.027 m/s
359.45 K, 400.08 kPa, Gas | – | 145.81 ± 0.027 m/s
359.45 K, 500.35 kPa, Gas | – | 142.58 ± 0.028 m/s and 142.58 ± 0.027 m/s
359.45 K, 596.94 kPa, Gas | – | 139.26 ± 0.029 m/s
359.45 K, 596.95 kPa, Gas | – | 139.26 ± 0.029 m/s
359.98 K, 499.3 kPa, Gas | 24.386 ± 0.017 | –
360 K, 387.4 kPa, Gas | 18.379 ± 0.017 | –
360 K, 916.6 kPa, Fluid (supercritical or subcritical phases) | 1094.63 ± 0.23 | –
360 K, 3249 kPa, Liquid | 1110.57 ± 0.28 | –
364 K, 2629 kPa, Fluid (supercritical or subcritical phases) | 1094.08 ± 0.23 | –
365.01 K, 5510.3 kPa, Liquid | 1109.87 ± 0.28 | –
368 K, 1297.9 kPa, Fluid (supercritical or subcritical phases) | 1070.52 ± 0.23 | –
368 K, 4345.4 kPa, Fluid (supercritical or subcritical phases) | 1093.56 ± 0.23 | –
370 K, 523.6 kPa, Gas | 24.719 ± 0.017 | –
370.01 K, 524 kPa, Gas | 24.736 ± 0.017 | –
370.01 K, 7766.7 kPa, Liquid | 1109.2 ± 0.27 | –
370.02 K, 407.6 kPa, Gas | 18.73 ± 0.016 | –
372 K, 2880.6 kPa, Fluid (supercritical or subcritical phases) | 1070 ± 0.23 | –
375.01 K, 2017.2 kPa, Liquid | 1052.12 ± 0.26 | –
375.01 K, 4033.7 kPa, Liquid | 1069.29 ± 0.27 | –
375.01 K, 5918 kPa, Liquid | 1083.16 ± 0.27 | –
375.01 K, 7957.7 kPa, Liquid | 1096.46 ± 0.27 | –
375.01 K, 10021 kPa, Liquid | 1108.53 ± 0.27 | –
376 K, 1522.5 kPa, Fluid (supercritical or subcritical phases) | 1043.77 ± 0.27 | –
376 K, 4464.2 kPa, Fluid (supercritical or subcritical phases) | 1069.49 ± 0.23 | –
379.77 K, 81.05 kPa, Gas | – | 159.47 ± 0.024 m/s and 159.47 ± 0.025 m/s
379.77 K, 81.06 kPa, Gas | – | 159.48 ± 0.024 m/s
379.77 K, 201.41 kPa, Gas | – | 156.72 ± 0.026 m/s

Liquid
Details | vapor or sublimation pressure [kPa]
280.01 K | 65.1 ± 2.6
290.01 K | 96.5 ± 2.5
300 K | 139 ± 2.5
310.01 K | 194.9 ± 2.7
320.02 K | 267.1 ± 0.4
330.01 K | 357.9 ± 0.6
340.01 K | 470.7 ± 0.8
350.02 K | 608.7 ± 1
360.02 K | 775 ± 1.2
370.03 K | 973.2 ± 1.5
